Data: patent publication US5491137A, “14α17α-(Propano-and 17^2 propeno) -estratrienes” (Schering Aktiengesellschaft, priority 1991, dated 1996)

Legend:
vaginal epithelium = test: Allen-Doisy test (vaginal smears in ovariectomized rats); format: in vivo; conditions: single administration day 1, smears days 3-5, threshold = amount at which 50% of animals reach stage 3 (estrus)
Procedure: In the Allen-Doisy test, an evaluation of vaginal smears in ovariectomized rats is performed on days 3-5 (d3-d5) after the one-time administration on day 1 (d1 ) of the test substance. The following cycle stages are distinguished:
1=diestrus (leukocytes and nucleated epithelial cells),
2=proestrus (nucleated epithelial cells),
3=estrus (denucleated horny plaques),
4=metestrus (denucleated horny plaques, leukocytes, epithelial cells).
After oral or subcutaneous administration, estrogenically active substances result in the proliferation of the vaginal epithelium and the hornification of superficial cell layers. Regarded as a threshold value, is the amount of an estrogen at which 50% of the animals reach stage 3. Further, estrogens cause an increase of the uterus weight.

Estrogen Receptor = Estrogen Receptor Test; format: binding; conditions: KF not defined in the patent

| SMILES | Allen-Doisy Test p.o. [ED50] (vaginal epithelium) | Allen-Doisy Test s.c. [ED50] (vaginal epithelium) | Estrogen Receptor Test [KF] (Estrogen Receptor) |
| --- | --- | --- | --- |
| C#C[C@]1(O)CC[C@H]2[C@@H]3CCc4cc(O)ccc4[C@H]3CC[C@@]21C [Ethinylestradiol] | 3.0 μg/Tier/Tag | 0.1-0.3 μg/Tier/Tag | 0.5 |
| C[C@]12CC[C@@H]3c4ccc(O)cc4CC[C@H]3[C@@]13C=CC[C@]2(O)CC3 [14α,17α-(17^2 -Propeno)estra-1,3,5(10)-triene-3,17β-diol] | < 1 μg/Tier/Tag | 0,1-0,3 μg/Tier/Tag | 0,4 |
